Here are results for five compounds from ChEMBL document CHEMBL1201862, “PubChem BioAssay data set” (2004).

Format in all cases: functional
Test [1] concerns the target T1, Sentrin-specific protease 7 (Homo sapiens, UniProt Q9BQF6).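 Further: Luminescence-based dose-response confirmation of ultra-high-throughput screening hits, measuring inhibition of SENP7.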
T1 sequence (Q9BQF6 whole entry): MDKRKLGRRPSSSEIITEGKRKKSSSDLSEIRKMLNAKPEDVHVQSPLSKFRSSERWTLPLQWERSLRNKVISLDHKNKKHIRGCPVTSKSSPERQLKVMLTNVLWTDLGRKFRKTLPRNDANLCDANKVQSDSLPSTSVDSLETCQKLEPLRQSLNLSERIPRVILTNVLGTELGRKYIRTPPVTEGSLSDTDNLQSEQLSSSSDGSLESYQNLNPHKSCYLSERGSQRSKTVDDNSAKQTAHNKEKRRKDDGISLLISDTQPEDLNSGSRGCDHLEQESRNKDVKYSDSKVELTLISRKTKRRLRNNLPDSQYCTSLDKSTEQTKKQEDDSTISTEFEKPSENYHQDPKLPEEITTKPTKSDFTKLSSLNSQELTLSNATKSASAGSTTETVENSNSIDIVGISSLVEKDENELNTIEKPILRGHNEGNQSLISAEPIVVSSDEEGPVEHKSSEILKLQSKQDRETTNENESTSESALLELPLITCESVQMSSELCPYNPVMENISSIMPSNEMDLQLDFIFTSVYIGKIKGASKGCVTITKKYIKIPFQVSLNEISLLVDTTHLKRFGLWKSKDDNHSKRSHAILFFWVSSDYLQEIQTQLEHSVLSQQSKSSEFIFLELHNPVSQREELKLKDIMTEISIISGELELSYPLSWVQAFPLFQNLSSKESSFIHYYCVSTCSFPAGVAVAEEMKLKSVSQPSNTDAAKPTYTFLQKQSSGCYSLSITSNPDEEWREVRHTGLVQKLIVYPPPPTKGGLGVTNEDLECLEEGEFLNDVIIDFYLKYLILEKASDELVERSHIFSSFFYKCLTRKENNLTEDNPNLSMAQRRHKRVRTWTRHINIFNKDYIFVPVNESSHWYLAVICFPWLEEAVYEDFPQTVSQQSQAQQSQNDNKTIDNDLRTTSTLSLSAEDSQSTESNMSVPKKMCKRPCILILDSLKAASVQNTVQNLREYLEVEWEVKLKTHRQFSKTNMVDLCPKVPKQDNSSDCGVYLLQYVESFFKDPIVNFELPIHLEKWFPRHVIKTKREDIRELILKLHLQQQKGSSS

Test [2] can be described thus: Luminescence Cell-Based Dose Response HTS to Identify Activators of Luciferase Translation or Activity in H4 […] Cells. [Related pubchem assays: 1829 (Project Summary), 1814 (Primary HTS)].
For test [3], the target named is Insulin-like growth factor 1 receptor (Homo sapiens, UniProt P08069). Kind of test: Navigating the Kinome. Panel member name: IGF1R.
Sequence of Insulin-like growth factor 1 receptor (P08069 31-736 limits assumed): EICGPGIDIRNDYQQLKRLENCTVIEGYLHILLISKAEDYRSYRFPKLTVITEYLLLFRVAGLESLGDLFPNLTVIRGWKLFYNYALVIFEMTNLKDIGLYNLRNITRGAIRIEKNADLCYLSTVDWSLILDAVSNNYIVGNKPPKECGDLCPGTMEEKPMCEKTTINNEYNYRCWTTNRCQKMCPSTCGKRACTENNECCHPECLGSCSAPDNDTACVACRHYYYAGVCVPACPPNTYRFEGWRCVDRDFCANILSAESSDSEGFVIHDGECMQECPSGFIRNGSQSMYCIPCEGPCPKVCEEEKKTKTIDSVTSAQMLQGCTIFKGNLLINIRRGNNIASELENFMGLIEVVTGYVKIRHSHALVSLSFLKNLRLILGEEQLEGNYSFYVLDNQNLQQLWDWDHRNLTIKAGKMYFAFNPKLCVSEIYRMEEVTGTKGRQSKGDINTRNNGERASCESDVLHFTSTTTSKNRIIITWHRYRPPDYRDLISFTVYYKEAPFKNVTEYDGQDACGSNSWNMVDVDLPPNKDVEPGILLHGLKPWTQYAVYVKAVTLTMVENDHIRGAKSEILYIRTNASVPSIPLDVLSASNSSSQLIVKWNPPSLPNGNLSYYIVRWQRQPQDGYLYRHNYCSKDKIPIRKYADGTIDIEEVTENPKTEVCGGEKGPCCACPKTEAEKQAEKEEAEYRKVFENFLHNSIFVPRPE
Sequence of Insulin-like growth factor 1 receptor (P08069 741-1367 limits assumed): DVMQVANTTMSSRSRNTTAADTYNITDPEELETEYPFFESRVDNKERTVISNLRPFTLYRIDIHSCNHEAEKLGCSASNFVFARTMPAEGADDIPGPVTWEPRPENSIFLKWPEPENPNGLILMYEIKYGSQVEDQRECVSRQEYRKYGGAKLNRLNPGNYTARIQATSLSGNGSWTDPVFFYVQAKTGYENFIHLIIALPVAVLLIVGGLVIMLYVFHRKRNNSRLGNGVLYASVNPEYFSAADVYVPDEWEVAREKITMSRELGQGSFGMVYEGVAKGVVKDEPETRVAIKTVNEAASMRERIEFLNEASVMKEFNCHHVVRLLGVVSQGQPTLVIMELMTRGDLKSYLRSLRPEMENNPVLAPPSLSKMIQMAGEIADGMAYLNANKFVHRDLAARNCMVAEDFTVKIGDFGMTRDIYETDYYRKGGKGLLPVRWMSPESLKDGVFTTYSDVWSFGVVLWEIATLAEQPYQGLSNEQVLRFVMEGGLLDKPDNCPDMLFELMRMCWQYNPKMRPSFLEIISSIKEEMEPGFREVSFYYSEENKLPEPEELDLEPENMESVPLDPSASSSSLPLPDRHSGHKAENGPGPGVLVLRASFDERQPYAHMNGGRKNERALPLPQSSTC
Test [4] deals with Mitogen-activated protein kinase kinase kinase kinase 5 (Homo sapiens, UniProt Q9Y4K4).
The target of test [5] is Maternal embryonic leucine zipper kinase (Homo sapiens, UniProt Q14680).
Sequence of Maternal embryonic leucine zipper kinase (Q14680 whole entry): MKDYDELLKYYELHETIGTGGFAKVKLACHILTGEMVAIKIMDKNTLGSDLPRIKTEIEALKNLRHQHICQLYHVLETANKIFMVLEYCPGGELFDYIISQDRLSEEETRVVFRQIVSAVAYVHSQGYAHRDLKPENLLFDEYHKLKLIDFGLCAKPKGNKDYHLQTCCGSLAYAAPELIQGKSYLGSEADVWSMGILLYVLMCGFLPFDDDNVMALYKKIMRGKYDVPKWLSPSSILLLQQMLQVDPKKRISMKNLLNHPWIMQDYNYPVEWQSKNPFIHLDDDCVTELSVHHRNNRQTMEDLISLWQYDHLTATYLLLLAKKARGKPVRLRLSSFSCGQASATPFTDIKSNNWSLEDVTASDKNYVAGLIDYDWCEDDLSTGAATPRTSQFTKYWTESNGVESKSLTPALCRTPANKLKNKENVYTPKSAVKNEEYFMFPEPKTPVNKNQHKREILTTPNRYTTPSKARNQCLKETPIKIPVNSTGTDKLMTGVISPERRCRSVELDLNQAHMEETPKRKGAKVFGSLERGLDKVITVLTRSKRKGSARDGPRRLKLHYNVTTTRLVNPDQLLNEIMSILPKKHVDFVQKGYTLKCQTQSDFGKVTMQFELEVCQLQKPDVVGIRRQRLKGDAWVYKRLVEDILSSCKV
Test [6] has as its target Tyrosine-protein kinase Fer (Homo sapiens, UniProt P16591).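 Further: FER tested as one member of a kinome panel.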
For test [7], the target named is Serine/threonine-protein kinase 3 (Homo sapiens, UniProt Q13188).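 Further: measured as one member of a kinome-wide kinase panel.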
In the next test the target is Misshapen-like kinase 1 (Homo sapiens, UniProt Q8N4C8).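 Further: kinome panel screen with MINK as the panel member.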
Test [8] concerns the target Serine/threonine-protein kinase Chk2 (Homo sapiens, UniProt O96017).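 Further: CHEK2 entry within a kinome-wide screening panel.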
In test [9] the target is Serine/threonine-protein kinase PLK1 (Homo sapiens, UniProt P53350).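 Further: PLK1 measured as one member of a kinome-wide profiling panel.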
The target of test [10] is STE20-like serine/threonine-protein kinase (Homo sapiens, UniProt Q9H2G2).
Test [11] has as its target Serine/threonine-protein kinase 17A (Homo sapiens, UniProt Q9UEE5).
In test [12] the target is BDNF/NT-3 growth factors receptor (Homo sapiens, UniProt Q16620).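 Further: NTRK2 measured as one member of a broad kinome-wide kinase profiling panel.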
Sequence of BDNF/NT-3 growth factors receptor (Q16620 whole entry): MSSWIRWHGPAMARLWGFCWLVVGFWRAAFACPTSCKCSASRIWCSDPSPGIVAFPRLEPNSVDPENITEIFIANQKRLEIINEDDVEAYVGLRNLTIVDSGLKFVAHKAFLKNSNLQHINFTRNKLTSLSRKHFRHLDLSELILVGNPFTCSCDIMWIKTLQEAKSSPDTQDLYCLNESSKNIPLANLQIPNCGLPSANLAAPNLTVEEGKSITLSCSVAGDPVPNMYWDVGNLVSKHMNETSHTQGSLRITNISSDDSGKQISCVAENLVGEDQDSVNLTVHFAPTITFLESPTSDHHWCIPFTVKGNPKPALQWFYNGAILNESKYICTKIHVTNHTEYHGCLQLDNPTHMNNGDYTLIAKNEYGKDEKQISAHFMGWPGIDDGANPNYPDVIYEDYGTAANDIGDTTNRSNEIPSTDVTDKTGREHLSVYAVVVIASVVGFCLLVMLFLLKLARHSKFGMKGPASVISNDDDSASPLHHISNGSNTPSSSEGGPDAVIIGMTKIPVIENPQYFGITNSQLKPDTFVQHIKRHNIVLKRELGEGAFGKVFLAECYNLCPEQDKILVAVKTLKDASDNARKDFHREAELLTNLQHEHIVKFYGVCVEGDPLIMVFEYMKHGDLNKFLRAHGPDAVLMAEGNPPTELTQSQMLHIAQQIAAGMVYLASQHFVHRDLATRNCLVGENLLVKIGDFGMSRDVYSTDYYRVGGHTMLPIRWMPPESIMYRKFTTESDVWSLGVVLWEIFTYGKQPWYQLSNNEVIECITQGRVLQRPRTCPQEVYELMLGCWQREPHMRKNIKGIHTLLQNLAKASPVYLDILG
For test [13], the target named is Serine/threonine-protein kinase pim-2 (Homo sapiens, UniProt Q9P1W9).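 Further: value comes from a broad kinase panel profiling study in which PIM2 was one of the panel members.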
Test [14] addresses Tyrosine-protein kinase ABL1 (Homo sapiens, UniProt P00519).
Test [15] deals with Mitogen-activated protein kinase 1 (Homo sapiens, UniProt P28482).
Sequence of Mitogen-activated protein kinase 1 (P28482 whole entry): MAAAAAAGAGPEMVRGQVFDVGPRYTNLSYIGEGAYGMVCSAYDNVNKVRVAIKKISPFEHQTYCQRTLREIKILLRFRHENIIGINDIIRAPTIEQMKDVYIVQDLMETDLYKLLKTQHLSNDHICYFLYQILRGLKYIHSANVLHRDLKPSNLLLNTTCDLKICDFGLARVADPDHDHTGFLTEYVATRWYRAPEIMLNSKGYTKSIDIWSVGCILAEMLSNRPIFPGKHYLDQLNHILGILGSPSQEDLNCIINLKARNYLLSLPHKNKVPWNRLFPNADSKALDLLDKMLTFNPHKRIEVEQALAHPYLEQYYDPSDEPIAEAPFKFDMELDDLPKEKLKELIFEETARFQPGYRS
Test [16] deals with Platelet-derived growth factor receptor beta (Homo sapiens, UniProt P09619).
For test [17], the target named is G protein-coupled receptor kinase 5 (Homo sapiens, UniProt P34947). Kind of test: Navigating the Kinome. Panel member name: GPRK5.
The target of test [18] is Protein kinase C zeta type (Homo sapiens, UniProt Q05513).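 Further: measured as one member of a broad kinase profiling panel.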
Sequence of Protein kinase C zeta type (Q05513 whole entry): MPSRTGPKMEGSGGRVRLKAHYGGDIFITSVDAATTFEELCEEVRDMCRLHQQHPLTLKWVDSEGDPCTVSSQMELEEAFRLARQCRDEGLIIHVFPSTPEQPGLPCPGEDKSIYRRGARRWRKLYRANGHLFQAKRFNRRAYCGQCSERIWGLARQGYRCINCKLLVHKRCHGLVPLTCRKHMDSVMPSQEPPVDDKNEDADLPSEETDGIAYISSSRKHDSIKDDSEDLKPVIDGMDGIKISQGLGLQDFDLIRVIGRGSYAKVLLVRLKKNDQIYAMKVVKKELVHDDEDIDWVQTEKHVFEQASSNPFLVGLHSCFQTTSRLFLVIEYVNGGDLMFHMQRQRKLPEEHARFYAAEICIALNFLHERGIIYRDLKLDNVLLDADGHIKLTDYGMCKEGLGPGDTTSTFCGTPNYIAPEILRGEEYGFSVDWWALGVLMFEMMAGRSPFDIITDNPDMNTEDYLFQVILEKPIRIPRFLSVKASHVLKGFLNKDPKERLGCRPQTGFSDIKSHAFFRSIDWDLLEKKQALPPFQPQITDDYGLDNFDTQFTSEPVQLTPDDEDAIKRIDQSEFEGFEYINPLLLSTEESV
The target of test [19] is Cyclin-dependent kinase 5 (Homo sapiens, UniProt Q00535).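 Further: CDK5 measured as one member of a kinase profiling panel.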
Sequence of Cyclin-dependent kinase 5 (Q00535 whole entry, the tested form may be a part): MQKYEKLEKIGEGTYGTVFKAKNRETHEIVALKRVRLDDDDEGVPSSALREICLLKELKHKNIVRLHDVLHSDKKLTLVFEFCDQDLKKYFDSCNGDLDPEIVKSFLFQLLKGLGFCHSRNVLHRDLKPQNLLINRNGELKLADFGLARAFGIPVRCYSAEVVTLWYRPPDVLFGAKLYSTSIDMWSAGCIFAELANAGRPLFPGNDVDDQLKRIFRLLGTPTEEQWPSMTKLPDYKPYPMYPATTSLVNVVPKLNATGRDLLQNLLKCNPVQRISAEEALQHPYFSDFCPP
The target of another test is LIM domain kinase 1 (Homo sapiens, UniProt P53667). Kind of test: Navigating the Kinome. Panel member name: LIMK1.

Each structure is given as a SMILES string. Active and inactive are the calls of the source.

Sequence of Serine/threonine-protein kinase Chk2 (O96017 whole entry): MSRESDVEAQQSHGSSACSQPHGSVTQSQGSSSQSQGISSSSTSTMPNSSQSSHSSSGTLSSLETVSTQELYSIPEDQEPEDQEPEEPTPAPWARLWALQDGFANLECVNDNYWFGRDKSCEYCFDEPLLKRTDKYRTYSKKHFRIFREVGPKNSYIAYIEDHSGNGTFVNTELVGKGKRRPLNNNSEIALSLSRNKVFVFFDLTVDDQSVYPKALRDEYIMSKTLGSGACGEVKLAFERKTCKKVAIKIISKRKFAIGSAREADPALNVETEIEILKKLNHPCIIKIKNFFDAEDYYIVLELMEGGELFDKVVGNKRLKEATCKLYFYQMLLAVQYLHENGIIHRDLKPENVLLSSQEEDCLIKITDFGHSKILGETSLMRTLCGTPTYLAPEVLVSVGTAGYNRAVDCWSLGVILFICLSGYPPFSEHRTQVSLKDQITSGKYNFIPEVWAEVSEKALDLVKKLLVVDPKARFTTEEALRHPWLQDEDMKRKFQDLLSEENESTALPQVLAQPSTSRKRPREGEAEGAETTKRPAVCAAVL
Sequence of Serine/threonine-protein kinase 17A (Q9UEE5 whole entry): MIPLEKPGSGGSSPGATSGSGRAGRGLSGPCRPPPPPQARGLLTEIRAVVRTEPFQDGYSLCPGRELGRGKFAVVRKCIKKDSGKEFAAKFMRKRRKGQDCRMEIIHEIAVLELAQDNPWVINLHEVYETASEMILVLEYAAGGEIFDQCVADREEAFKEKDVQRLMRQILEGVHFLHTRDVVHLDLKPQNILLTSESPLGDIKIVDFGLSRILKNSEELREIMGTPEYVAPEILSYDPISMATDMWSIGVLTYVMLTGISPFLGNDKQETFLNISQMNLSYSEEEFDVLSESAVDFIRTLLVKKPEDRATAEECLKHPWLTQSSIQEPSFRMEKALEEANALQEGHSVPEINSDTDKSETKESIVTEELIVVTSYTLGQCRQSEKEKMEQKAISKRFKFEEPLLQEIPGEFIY

A word on the IC50: it is the concentration that gives 50% inhibition. As a reminder, the EC50 is the concentration at which the effect is half-maximal. Consider `O=C1C2=[N+]([O-])[C@H]3CCCC[C@H]3[N+]([O-])=C2c2ccccc21`, for which, in test [1], the IC50 is 16.8 µM (active). In addition, the EC50 in test [2] was 14.9 µM (active).

For orientation: Ki means the equilibrium dissociation constant of an inhibitor or competing ligand from its target. Consider `NC1CCC(Nc2nccc(-c3c[nH]c4ncccc34)n2)CC1` (stereo unspecified), for which the Ki is > 2 µM (inactive) in test [3]; 0.0251 µM (active) in test [4]; 0.126 µM (active) in test [5]; 1 µM (active) in [6]; 0.0398 µM (active) in test [7]; 0.251 µM (active) at Misshapen-like kinase 1. For the same compound, the Ki was > 1.58 µM (inactive) in [8]; > 7.94 µM (inactive) in test [9]; 0.398 µM (active) in [10]; 0.0316 µM (active) in test [11]; > 5.01 µM (inactive) in test [12]; 0.501 µM (active) in [13]. In addition, the Ki is > 0.631 µM (inactive) in test [14] and 1.58 µM (active) in test [15].

For `OCc1cc(-c2ccc3[nH]ncc3c2)on1`, in test [16], the Ki is 50.1 µM (active).

As for `COC(C(=O)N1Cc2[nH]nc(NC(=O)c3ccc(N4CCN(C)CC4)cc3)c2C1)c1ccccc1` (stereo unspecified), the values for the Ki in test [17] and in [18] were > 3.98 µM (inactive) and > 7.94 µM (inactive), respectively.

Turning to `CC(C)(O)c1cn(-c2ccc3[nH]ncc3c2)nn1`, the Ki in [19] was 5.01 µM (active); on LIM domain kinase 1, 15.8 µM (active).
